Assay results as given in PubChem BioAssay (NCI).
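Results reflect a 48-hour exposure of cells in 96-well plates to compound at five concentrations. GI50 is the concentration that inhibits growth by half. TGI: concentration producing complete growth inhibition.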

Legend:
Assay in all cases: NCI tumour cell line growth inhibition, 48 h
CAKI-1 renal = tested on: CAKI-1 renal
EKVX NSCLC = tested on: EKVX NSCLC
HCC-2998 colon = tested on: HCC-2998 colon
NCI-H522 lung = tested on: NCI-H522 lung
RPMI-8226 leukemia = tested on: RPMI-8226 leukemia
SF-268 CNS = tested on: SF-268 CNS
SF-295 CNS = tested on: SF-295 CNS
SF-539 CNS = tested on: SF-539 CNS
SNB-19 CNS = tested on: SNB-19 CNS
T-47D breast = tested on: T-47D breast

Row | Structure (SMILES) | TGI (CAKI-1 renal) | TGI (EKVX NSCLC) | TGI (HCC-2998 colon) | TGI (NCI-H522 lung) | TGI (RPMI-8226 leukemia) | TGI (SF-268 CNS) | TGI (SF-295 CNS) | TGI (SF-539 CNS) | TGI (SNB-19 CNS) | TGI (T-47D breast) | GI50 (CAKI-1 renal) | GI50 (EKVX NSCLC) | GI50 (HCC-2998 colon) | GI50 (NCI-H522 lung) | GI50 (RPMI-8226 leukemia) | GI50 (SF-268 CNS) | GI50 (SF-295 CNS) | GI50 (SF-539 CNS) | GI50 (SNB-19 CNS) | GI50 (T-47D breast)
1 | CCc1nc(N)nc(N)c1-c1ccc(NC)c([N+](=O)[O-])c1 | > 79 µM | > 100 µM | 65.7 µM | > 57.2 µM | > 43.3 µM | > 100 µM | > 94.7 µM | > 100 µM | > 80.4 µM | > 100 µM | – | – | – | – | – | – | – | – | – | –
2 | O=c1cc(NCC(O)CN2CCCC2)n(Cc2ccccc2)c(=O)n1Cc1ccccc1 (stereo not given) | > 100 µM | > 100 µM | 77.7 µM | > 100 µM | 46.5 µM | > 100 µM | > 100 µM | > 100 µM | > 100 µM | > 100 µM | > 100 µM | > 100 µM | 25.8 µM | 79.3 µM | 22.6 µM | 47.5 µM | 46.6 µM | > 100 µM | > 100 µM | 52.4 µM
3 | COc1ccc(-c2nc3ccccn3c2/C=C/C(=O)c2cc(OC)c(OC)c(OC)c2)cc1OC | 20.2 µM | > 100 µM | 15.1 µM | 35.5 µM | 2.51 µM | 65.2 µM | 4.42 µM | 14.7 µM | > 100 µM | > 100 µM | 1.39 µM | 1.71 µM | 3.79 µM | 2.74 µM | 0.398 µM | 3.58 µM | 1.85 µM | 2.71 µM | 4.91 µM | 3.01 µM
4 | C=CCCCCC/C=C\[C@@H](O)C#CC#C/C=C/CO | > 100 µM | > 100 µM | > 100 µM | 98.7 µM | 38.4 µM | > 100 µM | > 100 µM | > 100 µM | > 100 µM | > 100 µM | > 100 µM | > 100 µM | > 100 µM | 26 µM | 16.3 µM | 39 µM | > 100 µM | > 100 µM | > 100 µM | > 100 µM
5 | CC(C)c1c(O)c(O)c2c(c1O)C(=O)C(O)=C1C(C)(C)CCC[C@@]12C | 6.34 µM | 11.5 µM | 10.4 µM | 13.4 µM | 3.99 µM | 20 µM | 12 µM | 14.8 µM | 22.1 µM | 16.5 µM | – | – | – | – | – | – | – | – | – | –
6 | COc1ccc(-c2[nH]c3ccc(OC)cc3c2/C=C(\C#N)S(=O)(=O)c2ccccc2)cc1 | > 100 µM | > 100 µM | 5.87 µM | > 20.7 µM | 6.64 µM | > 100 µM | > 23.9 µM | 2.51 µM | > 100 µM | 12.1 µM | 4.22 µM | 3.21 µM | 1.95 µM | 1.58 µM | 1.28 µM | 1.56 µM | 0.709 µM | 0.495 µM | 3.14 µM | 0.901 µM
7 | CCc1nc2cc(F)c(/C=C/C(=O)NO)cc2c(=O)n1CCc1ccccc1 | 3.12 µM | 15.7 µM | 12.7 µM | 0.392 µM | 19.9 µM | 10.1 µM | 0.617 µM | 3.36 µM | 17 µM | 0.853 µM | 0.305 µM | 0.387 µM | 0.381 µM | 0.171 µM | 0.387 µM | 0.355 µM | 0.234 µM | 0.341 µM | 0.46 µM | 0.22 µM
8 | CCCC(CCC)NCC(O)c1cc(-c2ccc(C(F)(F)F)cc2)nc(C(F)(F)F)c1 (stereo not given) | 3.98 µM | 3.81 µM | 3.1 µM | 3.26 µM | 4.87 µM | 3.38 µM | 3.78 µM | 3.26 µM | 3.42 µM | 3.3 µM | 1.94 µM | 2.01 µM | 1.68 µM | 1.71 µM | 2.15 µM | 1.86 µM | 1.99 µM | 1.67 µM | 1.79 µM | 1.7 µM
9 | Cc1cc2nc(C=C(C(F)(F)F)C(F)(F)F)oc2cc1C | 7.23 µM | 8.05 µM | 6.9 µM | 6.35 µM | 5.62 µM | 9 µM | > 10 µM | 6.43 µM | > 10 µM | 8.53 µM | – | – | – | – | – | – | – | – | – | –
10 | COc1c(C(=O)/C=C/c2ccccc2)c(O)cc2occc12 | 29.9 µM | 25.6 µM | 14.3 µM | 15.7 µM | 9.42 µM | 13.7 µM | 21.4 µM | 13.5 µM | 20.4 µM | 32.4 µM | 8.07 µM | 12.5 µM | 3.76 µM | 4.29 µM | 3.15 µM | 4.05 µM | 7.83 µM | 3.22 µM | 7.33 µM | 10.5 µM
11 | CC/C=C\C[C@H](O)C/C=C1/C(=O)C=C[C@@H]1C/C=C\CCCC(=O)OC | 12.7 µM | 12.4 µM | 3.68 µM | 2.43 µM | 9.21 µM | 11.8 µM | 5.58 µM | 7.33 µM | 14 µM | 12.8 µM | 3.11 µM | 3.11 µM | 2.09 µM | 1.03 µM | 1 µM | 2.56 µM | 2.26 µM | 2.75 µM | 2.88 µM | 2.52 µM
12 | CN1CCN(CCCNc2nc3ccc(Oc4ccc(NC(=O)Nc5cc(C(F)(F)F)ccc5F)cc4)cc3[nH]2)CC1 | > 25 µM | > 25 µM | 8.1 µM | 7.27 µM | 14 µM | 8.04 µM | 7.98 µM | 8.52 µM | 7.42 µM | 7.21 µM | > 25 µM | 6.69 µM | 4.35 µM | 3.8 µM | 5.88 µM | 4.17 µM | 3.67 µM | 4.22 µM | 3.99 µM | 3.43 µM
13 | NS(=O)(=O)c1ccc(-c2ccc3c(NC(=O)C4CC4)n[nH]c3c2)cc1 | > 25 µM | > 25 µM | > 25 µM | > 25 µM | > 25 µM | > 25 µM | > 25 µM | > 25 µM | > 25 µM | > 25 µM | > 25 µM | > 25 µM | > 25 µM | > 25 µM | > 25 µM | > 25 µM | > 25 µM | > 25 µM | > 25 µM | > 25 µM
